Data published in US20050009151A1, “Methods for the stereospecific and enantiomeric enrichment of beta-amino acids” (Pharmacia Corporation, priority 2003, published 2005).
Values belong to the compound of their own block, whether it stands above or below them.

Columns and labels:
Format in all cases: biochemical
[1] = system: β-aminotransferase enzyme from Variovorax paradoxus; assay: D-β-aminotransferase amino donor specificity; settings: for substrate for the enzyme (amino donor): 2 mg/ml amino donor, 10 mg/ml α-ketoglutarate, 1 hour, 37° C.
Description: The same preparation of semi-purified β-aminotransferase enzyme from Variovorax paradoxus was then assayed using a-ketoglutarate as the keto acceptor, in an assay consisting of 100 mM potassium phosphate, 10 mg/ml α-ketoglutarate, 2 mg/ml amino donor and 0.1 mM pyridoxal phosphate, at pH 8.0. The reactions were run at 37° C. with mild stirring for 1 hour. At 1 hour reaction time, 0.1 ml samples were withdrawn, acidified with addition of 0.1 ml 0.1N HCl, and centrifuged. The supernatant solution was collected into HPLC sample vials. Conversion of an amino acid to the corresponding ketone was quantified using reverse phase HPLC. The following amino acids (as an amino donor) were screened for activity: α-(D)-phenylalanine, α-(L)-phenylalanine, β-(D)-phenylalanine, β-(L)-phenylalanine, (D)-3-amino-5-phenylpentanoic acid, and (L)-3-amino-5-phenylpentantoic acid.

[2] = system: Alcaligenes eutrophus L-β-aminotransferase; assay: Substrate specificity of Alcaligenes eutrophus L-β-aminotransferase (crude cell homogenate); settings: for MSB Culture Extract D(S)-b-Phe consumed at t = 1 Hr / MSB Culture Extract L(R)-b-Phe consumed at t = 1 Hr: cells grown in MSB; for MSB Culture Extract D(S)-b-Phe consumed at t = 1 Hr / MSB Culture Extract L(R)-b-Phe consumed at t = 1 Hr / NB Culture Extract of Alcaligenes eutrophus D(S)-b-Phe consumed at t = 1 Hr / NB Culture Extract of Alcaligenes eutrophus L(R)-b-Phe consumed at t = 1 Hr: keto acceptor with or without PLP as labelled; for NB Culture Extract of Alcaligenes eutrophus D(S)-b-Phe consumed at t = 1 Hr / NB Culture Extract of Alcaligenes eutrophus L(R)-b-Phe consumed at t = 1 Hr: cells grown in NB
Description: Cell-free homogenates were used in assays designed to determine substrate specificity. The assays contained: 0.1-0.3 mg/ml protein, 10 mg/ml keto acceptor, 1 mg/ml amino donor, 0.1 mM pyridoxal phosphate, and 100 mM potassium phosphate, at pH 8.0. The reactions were run at 37° C. with gentle stirring for 1 hour. At 1 hour reaction time, 0.1 ml samples were withdrawn, acidified with addition of 0.1 ml 0.1N HCl, and centrifuged. The supernatant solution was collected into HPLC sample vials. Conversion of amino acid to the corresponding ketone was quantified using reverse phase HPLC. Enzymatic activity was measured as the rate of conversion of amino donor in a one hour period. In a series of reactions, the enzymatic activity was determined with the following variables: inclusion or omission of pyridoxal phosphate, using α-ketoglutarate or pyruvate as a keto acceptor, and (D)- or (L)-β-phenylalanine as amino donor.

[3] = system: Variovorax paradoxus β-aminotransferase; assay: Resolution of substrates with Variovorax paradoxus β-aminotransferase
Description: […] Reactions were typically run at 1 ml scale with gentle shaking at 26° C.
(§1) 10 ul of 2N HCl was added to a plastic screw capped vial and 90ul of sample was then added. The pH of the mixture confirmed to be below 4 and the mixture was centrifuged in a microcentrifuge at maximum speed for about 2 minutes to remove precipitated materials.
(§2) Samples were derivatized using Marfey's reagent, N•-(2,4-dinitro-5-fluorophenyl)-L-alaninamide. A stock solution of 10 mg/mL in acetone of this reagent was prepared. Either 20 or 40 ul of bioconversion sample was added to 20 ul 1.3 M KHCO3. To this was added 80 ul of the stock reagent solution, the vial sealed tightly, and heated at 70° C. for 10 minutes. As needed, after cooling to room temperature, the heated samples were centrifuged to remove solids. The supernatants were analyzed using an Eclipse XDB-C8 column, 4.6×150 mm, eluting with methanol gradient in water, from 50% methanol to 100% methanol. Both solvents were acidified with 0.1% trifluoroacetic acid.
(§3) For resolution experiments, the area of the peak consumed (converted to keto acid) was compared to the area remaining of the unconsumed peak, on the assumption that none was converted.

[4] = system: β-aminotransferase from Alcaligenes eutrophus; assay: Resolution of substrates with cell lysate from Alcaligenes eutrophus
Description: (§4) A buffer consisting of 0.3M Tricine, 15 mM MgSO4, enough pyridoxal phosphate to impart a pale yellow color and 0.3M sodium glutamate (for deamination reactions) or 0.3 M 2-ketoglutarate monopotassium salt (for synthesis reactions) was prepared.
(§5) One part buffer was combined with two parts lysate and this mixture was then added to pre-weighed substrate to give a concentration of 1 mg/ml substrate. Reactions were typically run at 1 ml scale with gentle shaking at 26° C.
as §1, §2, §3

[5] = system: Variovorax paradoxus β-aminotransferase; assay: Synthesis of β-amino acid from β-keto acid with Variovorax paradoxus β-aminotransferase
Description: as §4, §5, §1, §2
For synthesis experiments, in which β-keto acid was converted to β-amino acid, the area of the peak(s) was compared to a standard curve derived for β-phenylalanine.

[6] = system: β-aminotransferase enzyme from Variovorax paradoxus (CC-KGbPHe-I14); assay: D-β-aminotransferase keto acid substrate specificity; settings: rate of conversion of D-β-phenylalanine to 3-keto-3-phenylpropionic acid as percent of the rate using α-ketoglutarate; 10 mg/ml α-keto acceptor, 1 hour, 37° C.
Description: Semi-purified β-aminotransferase enzyme from Variovorax paradoxus (CC-KGbPHe-I14) was assayed using D-β-phenylalanine as the amino donor, in an assay consisting of 100 mM potassium phosphate, 2 mg/ml DL-β-phenylalanine, 10 mg/ml α-keto acceptor and 0.1 mM pyridoxal phosphate, at pH 8.0. The reactions were run at 37° C. with mild stirring for 1 hour. At 1 hour reaction time, 0.1 ml samples were withdrawn, acidified with addition of 0.1 ml 0.1N HCl, and centrifuged. The supernatant solution was collected into HPLC sample vials. Conversion of DL-β-phenylalanine to 3-keto-3-phenylpropionate was quantified using reverse phase HPLC. The following keto acids were screened for activity: α-ketoglutaric acid, oxaloacetic acid, pyruvic acid, 3-oxoadipic acid, 2-oxoadipic acid, 1,3-acetonedicarboxylic acid, and 4-ketopimelic acid. The relative rates of conversion of D-β-phenylalanine to 3-keto-3-phenylpropionic acid using the various keto acceptors is reported as percent of the rate using α-ketoglutarate, the experimentally determined preferred acceptor.

[7] = sodium sulfate purified β-aminotransferase, 3 hours

SMILES: N[C@H](CC(=O)O)c1ccccc1 [β-(L)-phenylalanine, L- or (R)-3-amino-3-phenylpropionic acid]
substrate for the enzyme (amino donor) [1]: Only β-(D)-phenylalanine and (D)-3-amino-5-phenylpenantoic acid were substrates
preference of the enzyme for the enantiomer ([2]; enzyme preferring pyruvic acid as amino acceptor, no activity on the D-enantiomer): 100%

SMILES: CC(C)C(N)CC(=O)O (stereo not drawn) [3-amino-4-methylpentanoic acid]
Peak consumption (later eluting peak) ([3]; cell lysate, 48 hours): 65%
Peak consumption (later eluting peak) ([3]; cell lysate, 48 hours, listed as 3-amino-4-methylpentanoic): 65%

SMILES: NC(CC(=O)O)C1CC1 (stereo not drawn) [3-amino-3-cyclopropylpropanoic acid]
early eluting peak observed ([3]; cell lysate, 0.225 M substrate, 0.45 M alpha-ketoglutarate, pH 8.1, 18.2 hours): 99.5%
Peak consumption (later eluting peak) ([3]; cell lysate, 22 hours): 98%
Peak consumption (earlier eluting peak) ([4]; 22 hours): approximately 42%
Peak consumption (earlier eluting peak) ([4]; 22 hours, listed as 3-amino-3-cyclopropyl propanoic acid): 42%

SMILES: N[C@@H](Cc1ccccc1)C(=O)O [α-(L)-phenylalanine]
substrate for the enzyme (amino donor) [1]: Only β-(D)-phenylalanine and (D)-3-amino-5-phenylpenantoic acid were substrates

SMILES: COc1ccc([C@H](N)CC(=O)O)cc1 [p-methoxy-β-phenylalanine]
Peak consumption (later eluting peak) ([3]; cell lysate, 23 hours): 80%

SMILES: N[C@H](Cc1ccccc1)C(=O)O [α-(D)-phenylalanine]
substrate for the enzyme (amino donor) [1]: Only β-(D)-phenylalanine and (D)-3-amino-5-phenylpenantoic acid were substrates

SMILES: O=C(O)CCC(=O)CCC(=O)O [4-Ketopimelic Acid]
Relative Activity [6]: 0%

SMILES: NC(CC(=O)O)c1ccc2ccccc2c1 (stereo not drawn) [3-amino-3-(2-naphthyl)propanoic acid]
Peak consumption (later eluting peak) ([3]; cell lysate, 5 hours): 50%

SMILES: CCCC(N)CC(=O)O (stereo not drawn) [3-aminohexanoic acid]
Peak consumption (later eluting peak) ([3]; cell lysate, 1 hour): >99%

SMILES: NC(CC(=O)O)C1CCCCC1 (stereo not drawn) [3-amino-3-cyclohexylpropanoic acid]
Peak consumption (later eluting peak) ([3]; cell lysate, 2 hours): >99%

SMILES: O=C(O)CCCC(=O)C(=O)O [2-Oxoadipic Acid]
Relative Activity [6]: 0.6%

SMILES: O=C(O)CCC(=O)C(=O)O [α-ketoglutarate]
Relative Activity [6]: 100%
MSB Culture Extract D(S)-b-Phe consumed at t = 1 Hr [2]: 0.966
MSB Culture Extract L(R)-b-Phe consumed at t = 1 Hr [2]: 6.9281
NB Culture Extract of Alcaligenes eutrophus D(S)-b-Phe consumed at t = 1 Hr [2]: 0.00
NB Culture Extract of Alcaligenes eutrophus L(R)-b-Phe consumed at t = 1 Hr [2]: 3.41

SMILES: O=C(O)CC(=O)C(=O)O [Oxaloacetic Acid]
Relative Activity [6]: 54%

SMILES: NC(CC(=O)O)c1ccco1 (stereo not drawn) [3-amino-3-(2-furyl)propanoic acid]
Peak consumption (earlier eluting peak) ([4]; 21 hours): 73%
Peak consumption (earlier eluting peak) ([4]; 21 hours, listed as 3-amino-3-(2-furyl) propanoic acid): 73%

SMILES: NC(CC(=O)O)c1ccsc1 (stereo not drawn) [3-amino-3-(3-thienyl)propanoic acid]
Peak consumption (earlier eluting peak) ([4]; 21 hours): 82%
Peak consumption (earlier eluting peak) ([4]; 22 hours): 82%

SMILES: N[C@@H](CCc1ccccc1)CC(=O)O [(L)-3-amino-5-phenylpentantoic acid, L- or (S)-3-amino-5-phenyl-pentanoic acid]
substrate for the enzyme (amino donor) [1]: Only β-(D)-phenylalanine and (D)-3-amino-5-phenylpenantoic acid were substrates

More lines, main results first:

Peak consumption (later eluting peak) ([3]; cell lysate, 5 hours): >95%
SMILES: NC(CC(=O)O)c1cccnc1 (stereo not drawn) [3-amino-3-(3-pyridyl)propanoic acid]

Peak consumption (later eluting peak) ([3]; cell lysate, 5 hours): 58%
SMILES: NC(CC(=O)O)c1ccc(Oc2ccccc2)cc1 (stereo not drawn) [3-amino-3-(4-phenoxyphenyl)propanoic acid]

Peak consumption (later eluting peak) ([3]; sodium sulfate purified beta-aminotransferase, 30 minutes): 98%
Peak consumption (later eluting peak) ([3]; sodium sulfate purified beta-aminotransferase, 30 minutes, listed as p-nitro-α-phenylalanine): approximately 98%
later eluting peak remaining ([3]; sodium sulfate purified beta-aminotransferase, after 1 hour): not detected
change in the concentration of the early eluting stereoisomer ([3]; sodium sulfate purified beta-aminotransferase, after 18 hours): no detectable change
SMILES: N[C@H](CC(=O)O)c1ccc([N+](=O)[O-])cc1 [p-nitro-β-phenylalanine]

substrate for the enzyme (amino donor) [1]: substrates for the enzyme
SMILES: N[C@H](CCc1ccccc1)CC(=O)O [(D)-3-amino-5-phenylpenantoic acid, D- or (R)-3-amino-5-phenyl-pentanoic acid]

Peak consumption (later eluting peak) ([3]; cell lysate, 5 hours): >99%
Peak consumption (later eluting peak) ([3]; cell lysate, 23 hours): 82%
SMILES: N[C@H](CC(=O)O)c1ccccc1 (racemic) [β-phenylalanine]
change in the concentration of the later eluting stereoisomer ([4]; after one day): no detectable change
earlier eluting peak remaining ([4]; after one day): not detectable

product stereoisomer peak observed [5, 7]: only later eluting peak was observed
β-amino acid formed, using β-phenylalanine as standard [5, 7]: approximately 0.02 mg/mL
SMILES: O=C(O)C(=O)Cc1ccccc1F [o-fluoro-phenyl-2-oxopropanoic acid]

substrate for the enzyme (amino donor) [1]: substrates for the enzyme
preference of the enzyme for the enantiomer ([1]; enzyme preferring α-ketoglutarate as amino acceptor, no activity on the L-enantiomer): 100%
SMILES: N[C@@H](CC(=O)O)c1ccccc1 [β-(D)-phenylalanine, D- or (S)-3-amino-3-phenylpropionic acid]

Peak consumption (later eluting peak) ([3]; cell lysate, 67 hours): 99%
Peak consumption (later eluting peak) ([3]; cell lysate, 67 hours, listed as o-fluoro-α-phenylalanine): 99%
SMILES: N[C@H](CC(=O)O)c1ccccc1F [o-fluoro-β-phenylalanine]

Peak consumption (later eluting peak) ([3]; cell lysate, 5 hours): 98%
SMILES: NC(CC(=O)O)c1cc2ccccc2o1 (stereo not drawn) [3-amino-3-(2-benzofuryl))propanoic acid]

Peak consumption (later eluting peak) ([3]; cell lysate, 23 hours): 82%
SMILES: N[C@H](CC(=O)O)c1ccc(F)cc1 [p-fluoro-β-phenylalanine]

Peak consumption (later eluting peak(s)) ([3]; cell lysate, 19 hours): >99%
SMILES: NC1CCCCC1C(=O)O (stereo not drawn) [2-aminocyclohexanecarboxylic acid]

Relative Activity [6]: 6%
SMILES: O=C(O)CCC(=O)CC(=O)O [3-Oxoadipic Acid]

Peak consumption (later eluting peak) ([3]; cell lysate, 23 hours): 95%
SMILES: N[C@H](CC(=O)O)c1cccc([N+](=O)[O-])c1 [m-nitro-β-phenylalanine]

Relative Activity [6]: 14%
SMILES: CC(=O)C(=O)O [Pyruvic Acid]
MSB Culture Extract D(S)-b-Phe consumed at t = 1 Hr [2]: 7.789
MSB Culture Extract L(R)-b-Phe consumed at t = 1 Hr [2]: 45.1865
NB Culture Extract of Alcaligenes eutrophus D(S)-b-Phe consumed at t = 1 Hr [2]: 3.37
NB Culture Extract of Alcaligenes eutrophus L(R)-b-Phe consumed at t = 1 Hr [2]: 48.61

Relative Activity [6]: 0%
SMILES: O=C(O)CC(=O)CC(=O)O [1,3-Acetonedicarboxylic Acid]

product stereoisomer peak observed ([5]; cell lysate, 19 hours): only later eluting peak was observed
3-aminohexanoic acid formed, using beta-phenylalanine as standard ([5]; cell lysate, approximately 50 mM substrate, approximately 60 mM glutamic acid, 19 hours): approximately 1 mg/mL
SMILES: CCCC(=O)CC(=O)O [3-Oxohexanoic acid]
